# From US20230406831A1, “COMPOUNDS AND METHODS OF INHIBITING BACTERIAL CHAPERONIN SYSTEMS” (THE TRUSTEES OF INDIANA UNIVERSITY, priority 2020, published 2023)
# Where two headings read alike, the source gives them in different places.
# What was measured:
# HSP60/10 = target: T1, HSP60/10 (Homo sapiens, UniProt P10809); assay: HSP60/10-mediated dMDH refolding assay; assay type: biochemical; conditions: 37° C., 1 mM ATP, read-out: Biochemical Assay IC50 HSP60/10-dMDH Refolding
# T1 construct: octa-Histidine (His8) tag, TEV-cleavable (N, cleaved yes); made in house; host or cells: HSP60 in Rosetta 2 (DE3) E. coli; HSP10 in Rosetta 2 (DE3) pLysS
# In short: (§1)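 Pre-formed chaperonin–denatured pig heart MDH complexes (50 nM GroEL or HSP60, 60 nM GroES or HSP10, 12 nM dMDH) refolded with 1 mM ATP and compound (100 μM–46 nM) at 37 °C, ~20-40 min for GroEL/ES or ~40-60 min for HSP60/10. After EDTA quench, MDH activity was read as NADH loss at A340. IC50 came from variable-slope regression.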
# GroEL/ES = target: T2, GroEL/ES (Escherichia coli, UniProt P0A6F5); assay: GroEL/ES-mediated dMDH refolding assay; assay type: biochemical, E. coli
# T2 construct: made in house; host or cells: GroEL in E. coli DH5a; GroES in E. coli BL21 (DE3)
# In short: as §1
# S. aureus = S. aureus bacterial proliferation assay; assay type: cell-based; conditions: for EC50: Staphylococcus aureus, read-out: S. aureus Proliferation EC50
# In short: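 Growth in BHI with 25 mg/L Ca2+ and 12.5 mg/L Mg2+; log-phase cultures diluted to OD600 0.017 and exposed to compounds at 100 μM–46 nM (3-fold series). Stagnant 37 °C incubation, OD600 read at 6–8 h, corrected with bacteria-free plates; EC50 by variable-slope nonlinear regression.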
# [1] = Table 2, cation adjusted BHI media, OD600 at 6-8 h
# T1 sequence (P10809 27-573): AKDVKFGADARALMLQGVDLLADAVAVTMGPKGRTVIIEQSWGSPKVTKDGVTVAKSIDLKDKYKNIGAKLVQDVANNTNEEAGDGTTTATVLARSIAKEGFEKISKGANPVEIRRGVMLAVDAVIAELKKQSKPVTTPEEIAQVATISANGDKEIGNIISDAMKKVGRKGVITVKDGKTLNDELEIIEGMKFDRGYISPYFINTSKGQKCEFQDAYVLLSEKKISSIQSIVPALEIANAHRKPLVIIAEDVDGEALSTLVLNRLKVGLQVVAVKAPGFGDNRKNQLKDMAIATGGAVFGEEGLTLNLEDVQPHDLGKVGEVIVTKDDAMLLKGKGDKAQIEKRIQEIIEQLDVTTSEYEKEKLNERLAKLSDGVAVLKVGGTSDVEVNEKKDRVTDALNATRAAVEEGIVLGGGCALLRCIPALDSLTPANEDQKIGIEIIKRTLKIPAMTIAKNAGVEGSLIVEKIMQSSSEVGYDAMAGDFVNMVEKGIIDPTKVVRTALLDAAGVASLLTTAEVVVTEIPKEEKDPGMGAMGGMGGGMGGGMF
# T2 sequence (P0A6F5 2-548): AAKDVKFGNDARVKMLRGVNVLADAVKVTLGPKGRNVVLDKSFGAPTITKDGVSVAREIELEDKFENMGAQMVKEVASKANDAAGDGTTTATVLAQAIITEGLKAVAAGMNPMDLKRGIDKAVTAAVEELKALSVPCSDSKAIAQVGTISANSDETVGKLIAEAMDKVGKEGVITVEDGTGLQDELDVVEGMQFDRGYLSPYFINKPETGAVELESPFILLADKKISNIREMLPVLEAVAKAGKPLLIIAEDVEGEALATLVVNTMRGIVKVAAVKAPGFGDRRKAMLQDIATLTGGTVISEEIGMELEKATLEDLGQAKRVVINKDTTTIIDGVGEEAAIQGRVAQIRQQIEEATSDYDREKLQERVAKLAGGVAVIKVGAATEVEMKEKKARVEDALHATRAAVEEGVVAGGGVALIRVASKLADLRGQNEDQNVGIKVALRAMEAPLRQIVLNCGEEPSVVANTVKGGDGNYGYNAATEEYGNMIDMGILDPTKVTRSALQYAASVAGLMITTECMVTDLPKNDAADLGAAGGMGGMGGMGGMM
Structure (SMILES),IC50 (HSP60/10; Table 3) [µM],IC50 (GroEL/ES) [µM],"EC50 (S. aureus; Table 3, cation adjusted BHI media, OD600 at 6-8 h) [µM]",IC50 (HSP60/10; Table 2) [µM],EC50 (S. aureus; [1]) [µM],S. aureus Proliferation EC50 (S. aureus; [1]) [µM],EC50 (S. aureus) [µM]
"O=C(Nc1ccc(O)cc1)c1cc(Cl)ccc1O [Compound 115, 5-chloro-2-hydroxy-N-(4-hydroxyphenyl)benzamide]",> 100,> 100,> 100,,,,
"Cc1cc(C(C#N)c2ccc(Cl)cc2)c(Cl)cc1NC(=O)c1cccc(Cl)c1O (stereo not drawn) [Compound 54, 3-chloro-N-(5-chloro-4-((4-chlorophenyl)(cyano)methyl)-2-methylphenyl)-2-hydroxybenzamide]",,14,,6.4,0.56,,
"Cc1cc(C(C#N)c2ccc(Cl)cc2)c(Cl)cc1NC(=O)c1ccccc1Cl (stereo not drawn) [Compound 76, 2-chloro-N-(5-chloro-4-((4-chlorophenyl)(cyano)methyl)-2-methylphenyl)benzamide]",,54,,> 100,,> 100,
"COc1c(Cl)cccc1C(=O)Nc1cc(Cl)c(C(C#N)c2ccc(Cl)cc2)cc1C (stereo not drawn) [Compound 53, 3-chloro-N-(5-chloro-4-((4-chlorophenyl)(cyano)methyl)-2-methylphenyl)-2-methoxybenzamide]",,81,,> 100,,> 100,
"Cc1cc(C(C#N)c2ccc(Cl)cc2)c(Cl)cc1NC(=O)c1cc(Cl)ccc1O (stereo not drawn) [Compound 58, 5-chloro-N-(5-chloro-4-((4-chlorophenyl)(cyano)methyl)-2-methylphenyl)-2-hydroxybenzamide]",,24,,40,,,0.14
"Cc1cc(C(C#N)c2ccc(Cl)cc2)c(Cl)cc1NC(=O)c1ccccc1[N+](=O)[O-] (stereo not drawn) [Compound 67, N-(5-chloro-4-((4-chlorophenyl)(cyano)methyl)-2-methylphenyl)-2-nitrobenzamide]",,43,,> 100,,> 100,
"Cc1ccc(O)c(C(=O)Nc2cc(Cl)c(C(C#N)c3ccc(Cl)cc3)cc2C)c1 (stereo not drawn) [Compound 60, N-(5-chloro-4-((4-chlorophenyl)(cyano)methyl)-2-methylphenyl)-2-hydroxy-5-methylbenzamide]",,41,,85,,1.3,
